Body weight data for 1 compound are collected here from US12201608B2, “Methods for treating Parkinson's disease by administering resiniferatoxin” (Sorrento Therapeutics, Inc., priority 2018, dated 2025).

“Also recorded” adds a separate entry of the source.

The data set can be described thus: Body weight monitoring in AAV-A53T / AAV-Null infused mice. It is filed as in vivo, C57Bl/6J male mice. The settings on record: single intrathecal 0.04 μg or 0.125 μg, 7 or 14 days after AAV-A53T or AAV-Null infusion, 8 week study, two-way ANOVA. On the procedure: For this study, a total of 110 male C57Bl/6J mice two months of age were infused with either AAV-A53T (90 mice) or AAV-Null (20 mice) into substantia nigra unilaterally to induce PD-like pathology or to serve as sham controls, respectively. Mice infused with AAV-Null (empty) vector (“sham-infused” mice) were used in order to control for the effect of the viral infusion. After 7 or 14 days of AAV-A53T mediated disease model induction, the mice were treated with RTX (0.04 μg or 0.125 μg) (5 μL volume, prepared from a 25 μg/ml RTX solution containing Polysorbate 80 at 0.03% w/v, dextrose at 0.05% w/v, Phosphate Buffer at 30 mM, and NaCl 0.54% w/v, pH 7.2, and diluted in saline as needed) by single intrathecal infusion at lumbar spinal cord area. One AAV-Null and AAV-A53T infused group per each time point were treated with vehicle instead of RTX.
The mice were then treated with RTX or vehicle by intrathecal infusion 7 or 14 days after AAV infusion. […]
Body weight of the animals was monitored two times per week. […] Dopamine and its metabolites were analyzed from ipsilateral and contralateral striata by high performance liquid chromatography (HPLC).
Body weight of the mice was measured twice-per week (on Mondays and Fridays) for the whole study duration.

Turning to `C=C(C)[C@]12C[C@@H](C)[C@@]34O[C@](Cc5ccccc5)(O[C@@H]1[C@@H]3C=C(COC(=O)Cc1ccc(O)c(OC)c1)C[C@]1(O)C(=O)C(C)=C[C@@H]41)O2` [RTX, Resiniferatoxin], the body weight entry was “steady weight gain was observed similarly in vehicle and RTX treated groups; also recorded: No significant differences between the groups”. Also, the body weight entry (listed as resiniferatoxin) is “No significant differences between the groups”.
